Values quoted from earlier work in patent publication US20110008801A1, “METHODS FOR MEASURING CELL-CELL OR CELL-MATRIX ADHESIVE FORCES AND COMPOUNDS FOR DISRUPTING ADHESIVE FORCES IN BIOLOGICAL SYSTEMS” (Worcester Polytechnic Institute, priority 2006, published 2011).

Tested on: UPEC, type 1 and P fimbriated E. coli

## O=C(CO)[C@@H](O)[C@H](O)[C@H](O)CO [fructose]
  adhesion of fimbriated E. coli: inhibited the adhesion of bacteria with type 1 fimbriae only
